Measured values from PMC4253628, “Antiviral effects against EV71 of pimprinine and its derivatives isolated from Streptomyces sp” (Virology Journal, 2014).

Experiments:
[1] = Cytotoxicity, MTT method, uninfected RD cells; format: cell-based; conditions: human; RD cells, MTT, 48 h; mean ± SD of three experiments; read-out: CC50, compound concentration required to reduce cell viability by 50%
Description: (§1) The 50% cell cytotoxic concentrations (CC50s) of compounds were calculated using SPSS software. SI were calculated from the ratio of CC50: EC50.

H1N1 [2] = assay: Inhibition of H1N1-induced CPE in MDCK cells; format: cell-based, influenza virus A/human/Hubei/86/2009 (H1N1); conditions: MDCK cells
EV71 [3] = assay: Progeny virus yield reduction, EV71 in RD cells; format: cell-based, Enterovirus 71
[4] = design: method as in PMID 11377760; conditions: in vivo, 80 mg/kg; cited from earlier work
CVB3 [5] = assay: Inhibition of CVB3-induced CPE in Hep-2 cells
Description: (§3) Cell viability was assessed by an MTT assay, which functions based on the reduction of a MTT into formazan dye by active mitochondria. The cells were treated with 100 μL of MTT (1 mg/mL, Sigma) and incubated at 37°C for 4 h. The reaction was blocked by DMSO and measured in a microplate reader (Bio-Tek Instruments) at 492 nm. The untreated control was arbitrarily set as 100%.
(§4) Confluent cell monolayers in 96-well dishes were infected with 100 TCID50 of corresponding virus dilution mixed with serial dilutions of tested compounds for 1 h at 37°C. Inocula were aspirated and the cells were then incubated with various concentrations of DMEM/tested compounds at 37°C, 5% CO2 for 48 h. CPE were observed microscopically and the viability of the cells was determined using MTT assays. […] The concentrations required for the tested compounds to achieve 50% protection of cells from virus-induced CPE were determined.

HSV-1 [6] = assay: Virus yield reduction assay, HSV-1; format: cell-based, herpes simplex virus 1; conditions: Hep-2 cells; — = less than 90% inhibition
H1N1 [7] = assay: Virus yield reduction assay, H1N1; format: cell-based, influenza virus A/human/Hubei/86/2009 (H1N1); conditions: MDCK cells; — = less than 90% inhibition
Description: Virus yield reduction assays were also carried out to evaluate further the protective effects of the tested compounds.
The virus suspension, serially diluted 10-fold with DMEM containing 2% FBS, was inoculated to cells in a 96-well plate. After 1 h incubation at 37°C in 5% CO2, unbinding virus was washed out and DMEM maintenance medium supplemented with 2% FBS was added to the cells. After 2 days, the infected cells were monitored for cytopathic effects (CPEs). The virus titer was calculated by the Reed–Muench method.

EV71 [8] = conditions: EV71, RD cells
Description: as §3, §4

ADV-7 [9] = assay: Inhibition of ADV-7-induced CPE in HeLa cells
Description: as §3, §4

[10] = Cytotoxicity, ATPLite luminescence-based assay, MDCK cells; format: cell-based, canine; conditions: dog
Source text: (§2) The ATPLite assay may be more sensitive to cytotoxicity than the MTT method. For RD and Hep-2 cells, similar results were obtained, and for HeLa and MDCK cells, the values of CC50 from the ATPLite assay were smaller than those from MTT assays (Tables 1, 2 and 3).

CVB3 [11] = assay: Virus yield reduction assay, CVB3; format: cell-based, Coxsackievirus B3; conditions: Hep-2 cells; — = less than 90% inhibition
[12] = Cytotoxicity, MTT method, Hep-2 cells; format: cell-based; conditions: human, uninfected Hep-2 cells; host cells of CVB3: Hep-2, MTT, 48 h; read-out: CC50 (CVB3)
Description: as §1

EV71 [13] = assay: microbe, parasite or virus in culture; conditions: Enterovirus A, EV71, RD, 48 h, read-out: EC50, compound concentration required to achieve 50% protection from virus-induced cytopathogenicity
Description: as §3, §4

[14] = Cytotoxicity, ATPLite luminescence-based assay, RD cells; format: cell-based; conditions: human
Source text: as §2

HSV-1 [15] = assay: Plaque reduction assay, HSV-1 in Hep-2 cells
Description: Confluent monolayers of Hep-2 cells, seeded in a 24-well plate, were infected with HSV-1 at a density of 60–80 plaque-forming units (PFU) per well and treated with media (pre-warmed DMEM containing 2% FBS, 0.8% low-melting agarose) mixed with or without the serially diluted tested compounds for the periods indicated following different procedures. The cells were incubated at 37°C until plaques appeared, followed by fixing with 10% formaldehyde and staining with 0.5% crystal violet. The plaques were counted by visual examination. The ratio of the number of plaques in the treated group to that in the untreated control was calculated.
A plaque reduction assay was performed to measure the inhibitory effects of the test compounds against HSV-1 infection.

[16] = Cytotoxicity, MTT method, MDCK cells; format: cell-based, canine; conditions: dog, uninfected MDCK cells, host cells of H1N1: MDCK
Description: as §1

[17] = Cytotoxicity, ATPLite luminescence-based assay, HeLa cells; format: cell-based; conditions: human
Source text: as §2

EV71 [18] = assay: Dependence of anti-EV71 activity on virus inoculum (cell viability, MTT) in RD cells; format: cell-based, Enterovirus 71
ADV-7 [19] = assay: Virus yield reduction assay, ADV-7; format: cell-based, adenovirus 7; conditions: Human mastadenovirus B; HeLa cells; read-out: EC90 ADV-7, concentration required to inhibit 90% virus yield
[20] = Cytotoxicity, MTT method, HeLa cells; format: cell-based; conditions: human, uninfected HeLa cells; host cells of ADV-7: HeLa, MTT, 48 h; read-out: CC50 (ADV-7)
Description: as §1

[21] = Cytotoxicity, ATPLite luminescence-based assay, Hep-2 cells; format: cell-based; conditions: human
Source text: as §2

Cc1ncc(-c2c[nH]c3ccccc23)o1 [Pimprinine, 5, 30-indolyl-2-methyloxazole]
CC50 at 48 h [1]: 1460 ± 27 µM
inhibition of H1N1 infection (H1N1 [2]): negligible measurable inhibition
EC50 H1N1 (H1N1 [2]; 100 TCID50, 48 h, CPE, — = less than 50% inhibition): — (—, less than 50% or 90% inhibition)
reduction in progeny virus titers relative to virus control (EV71 [3]; 80 μM, 100 TCID50 EV71, RD cells, 10 h): approximately 0.5 log
EC90 (EV71 [3]; Enterovirus A, EV71, RD cells, progeny viral yield, read-out: EC90, compound concentration required to achieve 90% virus yield reduction): 149 ± 12 µM
protection against electrically induced convulsions [4]: significant protection
EC50 (CVB3 [5]; Enterovirus B, CVB3, HEp-2, 48 h, read-out: EC50 CVB3): 95 ± 16 µM
SI CVB3, ratio CC50/EC50 (CVB3 [5]; Hep-2 cells): 5
EC90 HSV-1, concentration required to inhibit 90% virus yield (HSV-1 [6]): — (—, less than 50% or 90% inhibition)
EC90 H1N1, concentration required to inhibit 90% virus yield (H1N1 [7]): — (—, less than 50% or 90% inhibition)
SI (selectivity index), ratio CC50/EC50 (EV71 [8]): 16
SI ADV-7, ratio CC50/EC50 (ADV-7 [9]; HeLa cells): 8
EC50 (ADV-7 [9]; Human mastadenovirus B, HeLa, 48 h, read-out: EC50 ADV-7): 150 ± 10 µM
CC50 [10]: 649 ± 77 µM
EC90 CVB3, concentration required to inhibit 90% virus yield (CVB3 [11]): —^f (—, less than 50% or 90% inhibition)
CC50 at 48 h [12]: 443 ± 35 µM
EC50 (EV71 [13]): 89 ± 18 µM
CC50 [14]: 1260 ± 247 µM
SI HSV-1, ratio CC50/EC50 (HSV-1 [15]; Hep-2 cells): 3
EC50 (HSV-1 [15]; Human alphaherpesvirus 1, HEp-2, read-out: EC50 HSV-1): 160 ± 18 µM
CC50 at 48 h [16]: 899 ± 56 µM
CC50 [17]: 940 ± 219 µM
viability at 10 µM (EV71 [18]; Enterovirus A, 10 μM, 10^4 TCID50 EV71, 48 h pi): 7%
viability at 20 µM (EV71 [18]; Enterovirus A, 20 μM, 10^4 TCID50 EV71, 48 h pi): 19%
viability at 40 µM (EV71 [18]; Enterovirus A, 40 μM, 10^4 TCID50 EV71, 48 h pi): 16%
viability at 80 µM (EV71 [18]; Enterovirus A, 80 μM, 10^4 TCID50 EV71, 48 h pi): 22%
viability at 160 µM (EV71 [18]; Enterovirus A, 160 μM, 10^4 TCID50 EV71, 48 h pi): 28%
anti-EV71 inhibition at excessive virus inoculum (EV71 [18]; virus concentration above 10^4 TCID50): no inhibition observed
EC90 (ADV-7 [19]): 266 ± 14 µM
CC50 at 48 h [20]: 1140 ± 181 µM
CC50 [21]: 403 ± 53 µM
